Biological target: DNA-dependent protein kinase catalytic subunit (Homo sapiens, UniProt P78527)
Assay: Inhibition of DNA-dependent protein kinase (DNA-PK) of HeLa cell nuclear cell extract
Type: cell-free

DNA-dependent protein kinase catalytic subunit, sequence (P78527 whole entry): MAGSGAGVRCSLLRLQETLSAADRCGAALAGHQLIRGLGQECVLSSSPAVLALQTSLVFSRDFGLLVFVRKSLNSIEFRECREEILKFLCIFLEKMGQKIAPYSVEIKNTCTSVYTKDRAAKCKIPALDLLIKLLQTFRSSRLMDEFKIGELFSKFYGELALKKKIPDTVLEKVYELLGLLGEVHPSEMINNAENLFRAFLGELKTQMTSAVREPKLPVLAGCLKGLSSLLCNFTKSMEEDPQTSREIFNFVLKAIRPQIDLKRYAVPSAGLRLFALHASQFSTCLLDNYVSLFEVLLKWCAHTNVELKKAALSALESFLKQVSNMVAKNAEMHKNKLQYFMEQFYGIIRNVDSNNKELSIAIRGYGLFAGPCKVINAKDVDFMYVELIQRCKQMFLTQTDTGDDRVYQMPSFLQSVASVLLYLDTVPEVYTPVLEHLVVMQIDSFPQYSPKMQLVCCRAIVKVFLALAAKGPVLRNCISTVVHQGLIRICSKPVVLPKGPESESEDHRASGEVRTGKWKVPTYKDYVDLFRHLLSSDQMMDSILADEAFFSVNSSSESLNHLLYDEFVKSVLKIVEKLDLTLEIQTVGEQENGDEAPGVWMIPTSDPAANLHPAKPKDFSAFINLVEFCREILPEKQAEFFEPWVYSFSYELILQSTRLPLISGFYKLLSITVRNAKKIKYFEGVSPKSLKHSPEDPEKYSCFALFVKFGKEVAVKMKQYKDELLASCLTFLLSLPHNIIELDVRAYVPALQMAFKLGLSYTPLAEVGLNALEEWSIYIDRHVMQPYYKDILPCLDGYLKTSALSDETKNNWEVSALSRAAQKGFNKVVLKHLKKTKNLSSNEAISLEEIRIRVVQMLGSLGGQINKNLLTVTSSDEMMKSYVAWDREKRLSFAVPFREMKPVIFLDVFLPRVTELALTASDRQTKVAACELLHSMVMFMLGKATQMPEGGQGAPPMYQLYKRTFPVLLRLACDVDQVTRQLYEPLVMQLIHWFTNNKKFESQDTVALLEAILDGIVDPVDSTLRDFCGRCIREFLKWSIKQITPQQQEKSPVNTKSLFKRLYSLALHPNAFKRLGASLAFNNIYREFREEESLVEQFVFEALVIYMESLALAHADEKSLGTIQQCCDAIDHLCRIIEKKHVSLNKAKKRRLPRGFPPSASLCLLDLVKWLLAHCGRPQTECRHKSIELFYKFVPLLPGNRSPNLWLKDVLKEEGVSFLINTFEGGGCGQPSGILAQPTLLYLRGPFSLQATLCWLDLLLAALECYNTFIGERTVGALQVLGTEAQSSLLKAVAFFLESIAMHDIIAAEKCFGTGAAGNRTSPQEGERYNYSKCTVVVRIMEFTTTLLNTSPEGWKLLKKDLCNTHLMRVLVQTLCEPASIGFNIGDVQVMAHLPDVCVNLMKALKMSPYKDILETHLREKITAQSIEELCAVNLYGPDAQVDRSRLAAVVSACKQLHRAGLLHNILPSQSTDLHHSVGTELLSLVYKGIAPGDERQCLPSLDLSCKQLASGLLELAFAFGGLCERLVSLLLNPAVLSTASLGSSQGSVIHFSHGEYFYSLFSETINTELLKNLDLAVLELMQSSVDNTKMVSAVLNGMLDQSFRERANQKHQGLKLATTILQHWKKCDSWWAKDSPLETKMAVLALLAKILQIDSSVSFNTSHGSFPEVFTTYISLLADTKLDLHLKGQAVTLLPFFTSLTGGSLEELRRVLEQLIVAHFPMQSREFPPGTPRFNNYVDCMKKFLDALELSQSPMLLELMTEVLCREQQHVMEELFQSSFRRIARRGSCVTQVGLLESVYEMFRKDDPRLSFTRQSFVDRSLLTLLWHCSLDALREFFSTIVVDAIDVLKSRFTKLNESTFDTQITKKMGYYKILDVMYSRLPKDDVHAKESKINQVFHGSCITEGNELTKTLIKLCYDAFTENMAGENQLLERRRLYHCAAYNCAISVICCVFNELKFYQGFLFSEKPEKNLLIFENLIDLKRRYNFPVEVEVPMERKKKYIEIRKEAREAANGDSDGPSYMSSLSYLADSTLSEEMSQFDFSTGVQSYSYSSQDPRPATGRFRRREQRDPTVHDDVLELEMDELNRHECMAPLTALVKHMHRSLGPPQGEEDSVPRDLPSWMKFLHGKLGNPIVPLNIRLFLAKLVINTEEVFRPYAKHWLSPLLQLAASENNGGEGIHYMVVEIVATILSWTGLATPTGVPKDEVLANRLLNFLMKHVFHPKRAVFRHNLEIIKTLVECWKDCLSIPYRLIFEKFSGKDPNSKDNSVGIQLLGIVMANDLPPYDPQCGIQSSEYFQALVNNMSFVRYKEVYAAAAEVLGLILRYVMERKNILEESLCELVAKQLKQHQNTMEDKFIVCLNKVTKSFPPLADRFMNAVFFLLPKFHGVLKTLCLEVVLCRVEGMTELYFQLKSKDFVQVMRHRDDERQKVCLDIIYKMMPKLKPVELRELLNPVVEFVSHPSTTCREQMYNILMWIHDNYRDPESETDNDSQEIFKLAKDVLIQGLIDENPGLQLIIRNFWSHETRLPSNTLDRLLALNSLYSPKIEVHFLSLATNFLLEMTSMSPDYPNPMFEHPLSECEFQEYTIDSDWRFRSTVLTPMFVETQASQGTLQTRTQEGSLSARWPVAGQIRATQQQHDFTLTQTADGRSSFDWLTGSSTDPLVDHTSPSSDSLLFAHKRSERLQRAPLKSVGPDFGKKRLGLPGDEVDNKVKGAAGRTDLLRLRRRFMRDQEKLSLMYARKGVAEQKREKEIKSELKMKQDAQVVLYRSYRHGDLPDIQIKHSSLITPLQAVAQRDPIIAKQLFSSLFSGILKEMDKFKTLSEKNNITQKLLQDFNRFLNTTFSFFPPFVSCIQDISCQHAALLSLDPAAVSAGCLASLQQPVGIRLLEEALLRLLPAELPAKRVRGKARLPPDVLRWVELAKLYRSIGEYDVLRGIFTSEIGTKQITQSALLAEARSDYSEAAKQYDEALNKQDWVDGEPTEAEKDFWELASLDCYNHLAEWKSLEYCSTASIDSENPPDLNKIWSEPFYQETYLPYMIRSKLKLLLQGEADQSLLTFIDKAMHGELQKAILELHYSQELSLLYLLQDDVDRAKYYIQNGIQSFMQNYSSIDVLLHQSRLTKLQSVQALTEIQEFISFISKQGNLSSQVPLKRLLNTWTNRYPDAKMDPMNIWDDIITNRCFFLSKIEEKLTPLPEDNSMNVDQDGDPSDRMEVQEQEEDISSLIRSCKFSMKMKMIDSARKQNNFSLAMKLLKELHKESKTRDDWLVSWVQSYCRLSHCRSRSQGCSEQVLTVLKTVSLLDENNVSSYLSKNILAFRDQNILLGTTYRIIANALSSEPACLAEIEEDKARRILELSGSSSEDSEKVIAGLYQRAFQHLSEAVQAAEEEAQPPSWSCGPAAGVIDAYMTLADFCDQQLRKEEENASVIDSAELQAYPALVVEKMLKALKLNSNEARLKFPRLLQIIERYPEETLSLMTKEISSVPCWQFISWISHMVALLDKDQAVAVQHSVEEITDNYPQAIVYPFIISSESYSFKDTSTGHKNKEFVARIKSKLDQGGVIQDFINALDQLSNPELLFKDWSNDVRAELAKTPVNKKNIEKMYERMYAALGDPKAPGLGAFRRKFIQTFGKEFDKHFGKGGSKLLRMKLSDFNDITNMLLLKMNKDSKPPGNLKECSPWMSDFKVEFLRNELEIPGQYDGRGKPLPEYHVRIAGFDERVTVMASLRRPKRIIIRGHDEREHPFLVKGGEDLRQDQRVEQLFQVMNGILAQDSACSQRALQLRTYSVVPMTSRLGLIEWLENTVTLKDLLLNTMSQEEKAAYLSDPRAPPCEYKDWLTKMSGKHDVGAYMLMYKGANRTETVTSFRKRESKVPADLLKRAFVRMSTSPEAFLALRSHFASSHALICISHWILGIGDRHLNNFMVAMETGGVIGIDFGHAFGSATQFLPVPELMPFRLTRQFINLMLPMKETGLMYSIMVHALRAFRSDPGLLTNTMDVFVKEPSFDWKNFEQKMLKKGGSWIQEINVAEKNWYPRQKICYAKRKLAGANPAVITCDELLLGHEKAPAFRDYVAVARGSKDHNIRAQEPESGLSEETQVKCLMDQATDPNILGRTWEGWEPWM

IC50	SMILES
100 µM	N#Cc1cc(-c2ccncc2)c(/C=N/N)nc1O
> 500 µM	N#Cc1cc(-c2ccncc2)c(CO)nc1O
> 500 µM	COc1ccc(COCc2nc(O)c(C#N)cc2-c2ccncc2)cc1
1.4 µM	O=c1cc(N2CCOCC2)oc2c(-c3ccccc3)cccc12 [LY-294002]

— ChEMBL document CHEMBL1133828, “Synthesis, crystal structure determination, and biological properties of the DNA-dependent protein kinase (DNA-PK) inhibitor 3-cyano-6-hydrazonomethyl-5-(4-pyridyl)pyrid-[1H]-2-one (OK-1035)” (Bioorg Med Chem Lett, 2001)
